Assays:
Test in all cases: relative viability (nuclei count vs DMSO), 5 days (fraction); higher = more cells survive
[1] = compound: CC1(COc2ccc3c(c2)ncn3-c2ccc3cccc(N4CCC(N)CC4)c3n2)COC1 [Crenolanib] + CCNC(=O)c1noc(-c2cc(C(C)C)c(O)cc2O)c1-c1ccc(CN2CCOCC2)cc1 [Luminespib] (partner 0.01 µM)
How it was run: (§1)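 Dosing by pin tool came one day after lung cancer cell lines were seeded in 1536-well plates, using either one drug or a fixed anchor-drug dose plus five library-drug doses (not always all listed) in √10 steps. After 5 days, nuclei were counted on 4× images. Relative viability is treated-well nuclei count divided by vehicle-well nuclei count, and values are medians of duplicate plates.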

[2] = compound: CC1(COc2ccc3c(c2)ncn3-c2ccc3cccc(N4CCC(N)CC4)c3n2)COC1 [Crenolanib] + CS(=O)(=O)N1CCN(Cc2cc3nc(-c4cccc5[nH]ncc45)nc(N4CCOCC4)c3s2)CC1 [Pictilisib] (partner 1 µM)
How it was run: as §1

[3] = compound: O=C1NC(=O)[C@@H](c2cn3c4c(cccc24)CCC3)[C@@H]1c1c[nH]c2ccccc12 [Tivantinib] + COc1cccc2cc(-c3nc([C@H]4CC[C@H](C(=O)O)CC4)n4ncnc(N)c34)[nH]c12 [OSI-027] (partner 0.5 µM)
How it was run: as §1

[4] = compound: O=C1NC(=O)[C@@H](c2cn3c4c(cccc24)CCC3)[C@@H]1c1c[nH]c2ccccc12 [Tivantinib] + NC(=O)Nc1cc(-c2cccc(F)c2)sc1C(=O)N[C@H]1CCCNC1 [AZD7762] (partner 0.2 µM)
How it was run: as §1

| Cell Line | relative viability ([1]; first compound 0.01 µM) | relative viability ([1]; first compound 0.03162 µM) | relative viability ([1]; first compound 0.1 µM) | relative viability ([1]; first compound 0.3162 µM) | relative viability ([1]; first compound 1 µM) | relative viability ([2]; first compound 0.01 µM) | relative viability ([2]; first compound 0.03162 µM) | relative viability ([2]; first compound 0.1 µM) | relative viability ([2]; first compound 0.3162 µM) | relative viability ([2]; first compound 1 µM) | relative viability ([3]; first compound 0.01 µM) | relative viability ([3]; first compound 0.03162 µM) | relative viability ([3]; first compound 0.1 µM) | relative viability ([3]; first compound 0.3162 µM) | relative viability ([4]; first compound 0.01 µM) | relative viability ([4]; first compound 0.03162 µM) | relative viability ([4]; first compound 0.1 µM) | relative viability ([4]; first compound 0.3162 µM) |
| --- | --- | --- | --- | --- | --- | --- | --- | --- | --- | --- | --- | --- | --- | --- | --- | --- | --- | --- |
| NCI-H1734 | 0.174 | 0.171 | 0.191 | 0.173 | 0.291 | 0.436 | 0.494 | 0.443 | 0.477 | 0.432 | 0.646 | 0.553 | 0.643 | 0.576 | 0.6 | 0.487 | 0.505 | 0.478 |
| NCI-H1755 | 0.416 | 0.656 | 0.667 | 0.43 | 0.397 | 0.423 | 0.408 | 0.397 | 0.399 | 0.393 | 0.775 | 0.662 | 0.69 | 0.791 | 0.457 | 0.476 | 0.47 | 0.424 |
| NCI-H1792 | 0.563 | 0.424 | 0.367 | 0.394 | 0.429 | 0.32 | 0.34 | 0.29 | 0.269 | 0.195 | 0.777 | 0.685 | 0.595 | 0.547 | 0.653 | – | 0.644 | 0.589 |
| NCI-H1793 | 0.197 | 0.249 | 0.165 | 0.16 | 0.186 | 0.302 | 0.315 | 0.322 | 0.312 | 0.385 | 0.257 | 0.355 | 0.258 | 0.154 | 0.355 | 0.645 | 0.412 | 0.378 |
| NCI-H1915 | 0.787 | 0.875 | 0.757 | 0.857 | 0.803 | 0.871 | 0.957 | 0.932 | 0.915 | 0.586 | 0.626 | 0.543 | 0.648 | 0.715 | 0.654 | 0.771 | 0.629 | 0.665 |
| NCI-H1944 | 0.729 | 0.801 | 0.759 | 0.871 | 0.655 | 0.367 | 0.351 | 0.37 | 0.346 | 0.304 | 0.372 | 0.349 | 0.393 | 0.328 | 0.513 | 0.511 | 0.472 | 0.426 |
| NCI-H1975 | 0.337 | 0.22 | 0.182 | 0.269 | 0.185 | 0.271 | 0.307 | 0.247 | 0.283 | 0.214 | 0.751 | 0.752 | 0.611 | 0.691 | 0.734 | 0.667 | 0.714 | – |
| NCI-H1993 | 0.998 | 0.839 | 0.684 | 0.823 | 0.783 | 0.778 | 0.805 | 0.71 | 0.858 | 0.825 | 0.538 | 0.57 | 0.563 | 0.61 | 0.768 | 0.715 | 0.656 | 0.455 |
| NCI-H2085 | 0.478 | 0.43 | 0.407 | 0.481 | 0.421 | 0.45 | 0.412 | 0.481 | 0.469 | 0.5 | 0.773 | 0.582 | 0.851 | 0.412 | 1.01 | 0.944 | 0.942 | 0.813 |
